Measurements published in US12558371B2, “Chondroitin sulfate polysaccharide, and semi-synthetic preparation method therefor and use thereof” (Institute of Materia Medica, Chinese Academy of Medical …, priority 2019, dated 2026).
Marks after values point to notes of the source that are not given here.

Tests used:
[1] = test system: mouse ear acute swelling inflammation models caused by croton oil; test: Mouse ear acute swelling inflammation model caused by croton oil; assay type: in vivo, Balb/c mice; details: 5 mg/kg, once a day for 3 d
Protocol: Anti-inflammatory effects of the glycans 1 to 5 prepared in Examples 1 to 5 were evaluated, specifically as follows:
(1) Test method: experiments for evaluating pharmacodynamic activities of CS compounds in mouse ear acute swelling inflammation models caused by croton oil
Animals: Balb/c mice, male (20 g to 22 g); 8 mice per group.
Groups: model group, positive drug (indometacin) group (5 mg/kg), natural extract (CS-E) group (200 mg/kg), and glycan groups (200 mg/kg, 100 mg/kg, and 50 mg/kg). Each of the positive drug and the compounds of CS series was formulated with sodium carboxymethylcellulose at a concentration of 0.5% by mass, and stored in a refrigerator at 4° C.
Administration and test: the mice were administered for 3 d, once a day. After the last administration, an induction rate on mouse ear swelling (%) and an inhibition rate on the ear swelling degree (%) by the compounds were calculated.
Statistical analysis: the experimental results were all expressed as “mean±standard deviation”. A statistical difference between two groups was calculated and analyzed by the t-test method. * represents p<0.05, and ** represents p<0.01.

[2] = test system: DSS-induced UC model mice; test: DSS-induced acute ulcerative colitis (UC) mouse model; assay type: in vivo, C57BL/6J mice
Protocol: Pharmacodynamics of the Glycan 3 (referred to as SEMI5) prepared in Example 3 was evaluated on anti-DSS models, specifically as follows:
C57BL/6J mice, male (18 g to 20 g), 6 mice per group, which were purchased from Beijing Huafukang Biotechnology Co., Ltd., with a license No.: SCXK (Beijing) 2014-0004.
(1) Normal control group (control group): intragastrically administered with sodium carboxymethylcellulose at a concentration of 0.5% by mass.
(2) UC (Ulcerative colitis) model group (model group): intragastrically administered with sodium carboxymethylcellulose at a concentration of 0.5% by mass.
(3) SASP (a positive drug salazosulfapyridine) group: Shanghai Xinyi Pharmaceutical Co., Ltd. (Batch No.: 036151102), 500 mg/kg, which was formulated with sodium carboxymethylcellulose at a concentration of 0.5% by mass and stored at 4° C., and intragastrically administered once a day.
(4) SEMI5-50 group: 50 mg/kg, which was formulated with distilled water and stored at 4° C., and intragastrically administered once a day.
(5) SEMI5-150 group: 150 mg/kg, which was formulated with distilled water and stored at 4° C., and intragastrically administered once a day.
3. Experimental method After being adaptively raised for one week in an SPF animal house (experimental animal use license No.: SYXK (Beijing) 2014-0023), the C57BL/6J mice were randomly divided into 5 groups according to the above protocols. Mice in the UC model group and administration groups were modeled with DSS (MP, CA9011-18-1, US) every day according to the modeling method for ulcerative colitis that had been established in the laboratory. The normal control group (control group) and UC model group (model group) were intragastrically administered with sodium carboxymethylcellulose at a concentration of 0.5% by mass once a day. The SASP group, SEMI5-50 group, and SEMI5-150 group were intragastrically administered once a day according to the experimental protocols in the section of “Experimental groups”. 7 d after modeling, typical UC pathological changes such as obvious listlessness, activity reduction, weight loss, watery stool, and hematochezia occurred in animals of the UC model group. The experiments were terminated, and animals in each group were sacrificed. Each of evaluation indexes related with colitis was detected (as shown in the subsequent section of experimental results). The anti-UC pharmacodynamic activity of each of the compounds was evaluated comprehensively.
The animals were evaluated by the DAI scores in terms of indexes such as animal body weight loss, stool property, hematochezia. The lower the DAI score was, the closer was the condition of the animal to a normal physiological status.

[3] = 500 mg/kg intragastrically once a day, 7 d

| Compound | Inhibition rate (%) ([1]; Table 2) | Swelling rate (%) Mean ± SD ([1]; Table 2) | Inhibition rate (%) ([1]; Table 3) | Swelling rate (%) Mean ± SD ([1]; Table 3) | Inhibition rate (%) ([1]; Table 4) | Swelling rate (%) Mean ± SD ([1]; Table 4) | Effect on body weight reduction vs. UC model group (in words) ([2]; 500 mg/kg) | Effect on colon contracture vs. UC model group (in words) ([2]; 500 mg/kg) | Effect on disease complex index DAI scores vs. UC model group (in words) ([2]; 500 mg/kg) | Overall anti-UC activity (conclusion in words) ([2]; 500 mg/kg) | Colon contracture percentage (%) [2, 3] [%] | Colon length (cm) [2, 3] [cm] | DAI complex index inhibition rate (%) [2, 3] | Disease activity index DAI [2, 3] | Body weight (g) X ± SD, End ([2]; 500 mg/kg intragastrically once a day, end, 7 d after modeling) [g] | Body weight (g) X ± SD, Start ([2]; 500 mg/kg intragastrically once a day, start of experiment) [g] |
| --- | --- | --- | --- | --- | --- | --- | --- | --- | --- | --- | --- | --- | --- | --- | --- | --- |
| COc1ccc2c(c1)c(CC(=O)O)c(C)n2C(=O)c1ccc(Cl)cc1 [Indometacin, indometacin] | 26.01 | 70.25 ± 20.97* % | 27.70 | 74.43 ± 20.97* % | 41.06 | 45.34 ± 6.92* % |  |  |  |  |  |  |  |  |  |  |
| O=C(O)c1cc(/N=N/c2ccc(S(=O)(=O)Nc3ccccn3)cc2)ccc1O [SASP, salazosulfapyridine] |  |  |  |  |  |  | failed to effectively alleviate the body weight reduction | failed to effectively alleviate the colon contracture | improved to some extent | exhibited a certain anti-UC activity | 31.39 | 5.29 ± 0.61 | 14.68* % | 3.10 ± 0.59 | 18.76 ± 1.09 | 21.97 ± 0.71 |
